# Reference: patent US20230233555A1 (AbbVie Inc., priority 2022, published 2023)
# How the values were obtained:
# [1] = test system: CYP1A2, CYP3A, CYP2D6, CYP2C9, CYP2C19, CYP2B6; experiment: Drug interaction studies: effect of upadacitinib on co-administered drugs / in vivo markers of CYP activity (cocktail study); details: for AUC Ratio (90% CI) of co-administered drug, with upadacitinib vs alone / Cmax Ratio (90% CI) of co-administered drug, with upadacitinib vs alone: extended-release
# [2] = test system: patients with moderately to severely active rheumatoid arthritis, naive to MTX; experiment: Trial RA-I (NCT02706873); format: in vivo, human; details: for CRP / Number of swollen joints (0-66) / Number of tender joints (0-68) / Pain / Patient global assessment / Physician global assessment: mean; for Pain / Patient global assessment / Physician global assessment: visual analog scale 0 = best, 100 = worst
# Method: The primary endpoint was the proportion of patients who achieved an ACR50 response at Week 12. Key secondary endpoints included disease activity score (DAS28-CRP) ≤3.2 at Week 12, DAS28-CRP <2.6 at Week 24, change from baseline in HAQ-DI at Week 12, and change from baseline in van der Heijde-modified total Sharp Score (mTSS) at Week 24.
# Inhibition of progression of structural joint damage was assessed using the modified Total Sharp Score (mTSS) and its components, the erosion score and joint space narrowing score, at Week 26 in Trial RA-IV and Week 24 in Trial RA-I. The proportion of patients with no radiographic progression (mTSS change from baseline […]) was also assessed.
# [3] = test system: patients with moderately to severely active rheumatoid arthritis, inadequate response to MTX; experiment: Trial RA-II (NCT02706951); format: in vivo, human; details: for CRP / Number of swollen joints (0-66) / Number of tender joints (0-68) / Pain / Patient global assessment / Physician global assessment: Trial RA-II, MTX-IR, monotherapy, mean; for Pain / Patient global assessment / Physician global assessment: visual analog scale 0 = best, 100 = worst; for CRP, mean / Number of swollen joints (0-66), mean / Number of tender joints (0-68), mean / Pain (visual analog scale 0-100), mean / Patient global assessment (visual analog scale 0-100), mean / Physician global assessment (visual analog scale 0-100), mean: RA-II
# Description: The primary endpoint was the proportion of patients who achieved an ACR20 response at Week 14. Key secondary endpoints included DAS28-CRP ≤3.2, DAS28-CRP <2.6, and change from baseline in HAQ-DI at Week 14.
# [4] = test system: patients with rheumatoid arthritis; experiment: Rheumatoid arthritis Phase 3 trials, integrated datasets (RA-I to RA-V)
# Description: Exposure adjusted incidence rates were adjusted by trial for all the adverse events reported in this section.
# Patients 18 years of age and older were eligible to participate. The presence of at least 6 tender and 6 swollen joints and evidence of systemic inflammation based on elevation of hsCRP was required at baseline.
# [5] = Baseline, Trial RA-I, MTX-naïve, monotherapy, RINVOQ 15 mg or MTX
# [6] = RA-I MTX-naive monotherapy, Week 12, RINVOQ 15 mg or MTX
# [7] = RA-I MTX-naive monotherapy, Week 24, RINVOQ 15 mg or MTX
# [8] = RA-I, Baseline, RINVOQ 15 mg or MTX
# [9] = RA-I, Week 12, RINVOQ 15 mg or MTX
# [10] = Week 12 (primary efficacy timepoint), Trial RA-I, MTX-naïve, monotherapy, RINVOQ 15 mg or MTX
# [11] = RA-II MTX-IR monotherapy, Week 14, RINVOQ 15 mg or MTX
# [12] = Week 14 (primary efficacy timepoint), RINVOQ 15 mg or MTX
# [13] = MTX-controlled RA-I and RA-II, 12/14 weeks, 15 mg monotherapy (or MTX monotherapy arm)
# [14] = MTX-controlled trials, up to 12/14 weeks, 15 mg (or MTX arm)
smiles,measurement,setting,value
Cc1ncc2n1-c1ccc(Cl)cc1C(c1ccccc1F)=NC2 [Midazolam],Decrease in exposure of oral midazolam (sensitive CYP3A4 substrate),[1]; repeated doses of upadacitinib 30 mg,26%
same,"AUC Ratio (90% CI) of co-administered drug, with upadacitinib vs alone",[1]; upadacitinib 30 mg QD,0.74 (0.68-0.80)
same,"Cmax Ratio (90% CI) of co-administered drug, with upadacitinib vs alone",[1]; upadacitinib 30 mg QD,0.74 (0.68-0.80)
same,"AUC Ratio (90% CI) of co-administered drug, with upadacitinib vs alone",[1]; upadacitinib 45 mg QD,0.76 (0.69-0.83)
same,"Cmax Ratio (90% CI) of co-administered drug, with upadacitinib vs alone",[1]; upadacitinib 45 mg QD,0.75 (0.69-0.83)
COc1ccc2c(c1)[C@]13CCCC[C@@H]1[C@H](C2)N(C)CC3 [Dextromethorphan],"AUC Ratio (90% CI) of co-administered drug, with upadacitinib vs alone",[1]; upadacitinib 30 mg QD,1.07 (0.95-1.22)
same,"Cmax Ratio (90% CI) of co-administered drug, with upadacitinib vs alone",[1]; upadacitinib 30 mg QD,1.09 (0.98-1.21)
same,"AUC Ratio (90% CI) of co-administered drug, with upadacitinib vs alone",[1]; upadacitinib 45 mg QD,1.35 (1.18-1.54)
same,"Cmax Ratio (90% CI) of co-administered drug, with upadacitinib vs alone",[1]; upadacitinib 45 mg QD,1.30 (1.13-1.50)
"CN(Cc1cnc2nc(N)nc(N)c2n1)c1ccc(C(=O)N[C@@H](CCC(=O)O)C(=O)O)cc1 [MTX, methotrexate]","mTSS, Mean (SD)",[2]; [5],13.3 (31)
same,CRP,[2]; [5],21.2 mg/L
same,Number of swollen joints (0-66),[2]; [5],17
same,Number of tender joints (0-68),[2]; [5],26
same,Pain,[2]; [5],66
same,Patient global assessment,[2]; [5],66
same,Physician global assessment,[2]; [5],69
same,"ACR20 response, patients",[2]; [6],54%
same,"ACR50 response, patients",[2]; [6],28%
same,"ACR70 response, patients",[2]; [6],14%
same,"DAS28-CRP <2.6, patients (proportion of responders)",[2]; [6],14%
same,"ACR20 response, patients",[2]; [7],59%
same,"ACR50 response, patients",[2]; [7],33%
same,"ACR70 response, patients",[2]; [7],18%
same,"DAS28-CRP <2.6, patients",[2]; [7],18%
same,"mTSS, Mean (SD)","[2]; RA-I monotherapy, Baseline, RINVOQ 15 mg or MTX",13.3 (31)
same,"mTSS, mean change from baseline (SD)","[2]; RA-I monotherapy, Week 24, RINVOQ 15 mg or MTX",0.67 (2.8)
same,"Venous thrombosis, number of patients","[2]; RA-I through Week 24, 15 mg (or MTX arm)",1 patients
same,"CRP, mean",[2]; [8],21.2 mg/L
same,"Number of swollen joints (0-66), mean",[2]; [8],17
same,"Number of tender joints (0-68), mean",[2]; [8],26
same,"Pain (visual analog scale 0-100), mean",[2]; [8],66
same,"Patient global assessment (visual analog scale 0-100), mean",[2]; [8],66
same,"Physician global assessment (visual analog scale 0-100), mean",[2]; [8],69
same,"CRP, mean",[2]; [9],10.9 mg/L
same,"Number of swollen joints (0-66), mean",[2]; [9],6
same,"Number of tender joints (0-68), mean",[2]; [9],13
same,"Of DAS28-CRP <2.6 responders, proportion with 0 active joints",[2]; [9],51%
same,"Of DAS28-CRP <2.6 responders, proportion with 1 active joint",[2]; [9],35%
same,"Of DAS28-CRP <2.6 responders, proportion with 2 active joints",[2]; [9],9%
same,"Of DAS28-CRP <2.6 responders, proportion with 3 or more active joints",[2]; [9],5%
same,"Pain (visual analog scale 0-100), mean",[2]; [9],41
same,"Patient global assessment (visual analog scale 0-100), mean",[2]; [9],42
same,"Physician global assessment (visual analog scale 0-100), mean",[2]; [9],32
same,Patients with no radiographic progression,"[2]; RA-I, Week 24, RINVOQ 15 mg monotherapy or MTX monotherapy",78%
same,CRP,[2]; [10],10.9 mg/L
same,Number of swollen joints (0-66),[2]; [10],6
same,Number of tender joints (0-68),[2]; [10],13
same,Pain,[2]; [10],41
same,Patient global assessment,[2]; [10],42
same,Physician global assessment,[2]; [10],32
same,"mTSS, mean change from baseline (SD)","[2]; Week 24, Trial RA-I, MTX-naïve, monotherapy, RINVOQ 15 mg or MTX",0.67 (2.8)
same,CRP,"[3]; Baseline, RINVOQ 15 mg or MTX",14.5 mg/L
same,Number of swollen joints (0-66),"[3]; Baseline, RINVOQ 15 mg or MTX",17
same,Number of tender joints (0-68),"[3]; Baseline, RINVOQ 15 mg or MTX",25
same,Pain,"[3]; Baseline, RINVOQ 15 mg or MTX",63
same,Patient global assessment,"[3]; Baseline, RINVOQ 15 mg or MTX",60
same,Physician global assessment,"[3]; Baseline, RINVOQ 15 mg or MTX",62
same,"ACR20 response, patients",[3]; [11],41%
same,"ACR50 response, patients",[3]; [11],15%
same,"ACR70 response, patients",[3]; [11],3%
same,"DAS28-CRP <2.6, patients",[3]; [11],8%
same,"Venous thrombosis, number of patients","[3]; RA-II through Week 14, 15 mg monotherapy (or MTX monotherapy arm)",0 patients
same,"CRP, mean","[3]; Baseline, RINVOQ 15 mg or MTX",14.5 mg/L
same,"Number of swollen joints (0-66), mean","[3]; Baseline, RINVOQ 15 mg or MTX",17
same,"Number of tender joints (0-68), mean","[3]; Baseline, RINVOQ 15 mg or MTX",25
same,"Pain (visual analog scale 0-100), mean","[3]; Baseline, RINVOQ 15 mg or MTX",63
same,"Patient global assessment (visual analog scale 0-100), mean","[3]; Baseline, RINVOQ 15 mg or MTX",60
same,"Physician global assessment (visual analog scale 0-100), mean","[3]; Baseline, RINVOQ 15 mg or MTX",62
same,"CRP, mean","[3]; Week 14, RINVOQ 15 mg or MTX",12.8 mg/L
same,"Number of swollen joints (0-66), mean","[3]; Week 14, RINVOQ 15 mg or MTX",9
same,"Number of tender joints (0-68), mean","[3]; Week 14, RINVOQ 15 mg or MTX",15
same,"Pain (visual analog scale 0-100), mean","[3]; Week 14, RINVOQ 15 mg or MTX",49
same,"Patient global assessment (visual analog scale 0-100), mean","[3]; Week 14, RINVOQ 15 mg or MTX",48
same,"Physician global assessment (visual analog scale 0-100), mean","[3]; Week 14, RINVOQ 15 mg or MTX",37
same,CRP,[3]; [12],12.8 mg/L
same,Number of swollen joints (0-66),[3]; [12],9
same,Number of tender joints (0-68),[3]; [12],15
same,Pain,[3]; [12],49
same,Patient global assessment,[3]; [12],48
same,Physician global assessment,[3]; [12],37
same,"Infections, number of patients",[4]; [13],127 patients
same,"Infections, rate",[4]; [13],119.5 per 100 patient-years
same,"Malignancies excluding NMSC, number of patients",[4]; [13],1 patients
same,"Malignancies excluding NMSC, rate",[4]; [13],0.8 per 100 patient-years
same,"Opportunistic infections (excluding tuberculosis), number of patients",[4]; [13],1 patients
same,"Serious infections, number of patients",[4]; [13],2 patients
same,"Serious infections, rate",[4]; [13],1.6 per 100 patient-years
same,"Opportunistic infections (excluding tuberculosis), rate","[4]; MTX-controlled RA-I and RA-II, 12/14 weeks, MTX monotherapy arm",0.8 per 100 patient-years
same,"ALT elevations ≥3×ULN in at least one measurement, patients",[4]; [14],1.9%
same,"AST elevations ≥3×ULN in at least one measurement, patients",[4]; [14],0.9%
same,Active tuberculosis cases,"[4]; RA MTX-controlled period, 15 mg monotherapy (or MTX monotherapy arm)",no active cases
same,Gastrointestinal perforations,"[4]; RA MTX-controlled trials, 12/14 weeks, 15 mg (or MTX arm)",no cases
